Assay results reported in ChEMBL document CHEMBL1135156, “Synthesis of novel furo, thieno, and benzazetoazepines and evaluation of their cytotoxicity” (Bioorg Med Chem Lett, 2002).

Tests used:
[1] = system: MCF7; test: Inhibitory activity against MCF-7 breast cell line using sulforhodamine B (SRB) protein assay; format: functional, cell-based; conditions: Homo sapiens
[2] = system: PC-3; test: Inhibitory activity against PC-3 prostate cell line using sulforhodamine B (SRB) protein assay; format: functional, cell-based; conditions: Homo sapiens
[3] = system: U-251; test: Inhibitory activity against U251 CNS cell line using sulforhodamine B (SRB) protein assay; format: functional, cell-based; conditions: Homo sapiens
[4] = system: K562; test: Iinhibitory activity against K562 leukemia cell line using sulforhodamine B (SRB) protein assay; format: functional, cell-based; conditions: Homo sapiens
[5] = system: HCT-15 (Homo sapiens); test: Inhibitory activity against HCT-15 colon cell line using sulforhodamine B (SRB) protein assay
[6] = system: HCT-15; test: Inhibitory activity against HCT-15 colon cell line using sulforhodamine B (SRB) protein assay; format: functional, cell-based; conditions: Homo sapiens

Structure (SMILES)	IC50 [1] [µM]	IC50 [2] [µM]	IC50 [3] [µM]	IC50 [4] [µM]	IC50 [5] [µM]	IC50 [6] [µM]
COc1cccc2c1CCCN1C(=O)[C@@H](Oc3ccccc3)[C@]21SC	33	21	25	23	19	
CS[C@@]12c3cc(C)n(-c4ccc(I)cc4)c3CC(C)(C)CN1C(=O)[C@H]2Oc1ccccc1	> 100	87	40	> 100		> 100
CS[C@@]12c3cc(C)oc3CC(C)(C)CN1C(=O)[C@H]2Oc1ccccc1	47	53	47	31		56
CS[C@@]12c3cc(C)sc3CC(C)(C)CN1C(=O)[C@H]2Oc1ccccc1	41	11	33	39		26
COc1cccc2c1C(=O)c1c(O)c3c(c(O)c1C2=O)C[C@@](O)(C(=O)CO)C[C@@H]3O[C@H]1C[C@H](N)[C@H](O)[C@H](C)O1 [DOXORUBICIN]		32	0.09	0.28		0.23
